From patent US10561736B1, “Apoptosis inhibitor formulations for prevention of hearing loss” (Spiral Therapeutics, Inc., priority 2019, dated 2020)

What was measured:
HEI-OC1 cells = test: release of mitochondrial Cytc in HEI-OC1 cells with CisPt (flow cytometry); type: cell-based; conditions: HEI-OC1 cells, CisPt alone vs pre-incubated with LPT99, flow cytometry
Method: Flow cytometry was also used to characterize the effect of LPT99 in the release of mitochondrial Cytc in HEI-OC1 cells in vitro with CisPt prevention.
The effect of LPT99 on proliferation of non-apoptotic cells was studied. A549 cells were cultured in the presence of LPT99 for up to 6 days; the cell number was monitored by flow cytometry, and doubling time was calculated.

rats = test: GLP auditory safety study after single IT administration; type: in vivo, rat
Method: Gross observations were recorded, and selected organs were weighed.

| Compound | release of mitochondrial Cytc (HEI-OC1 cells) | weight-normalized heart weights (rats; male rats, 400 mg/mL gentamicin, Day 14, vs saline controls) | otoscopic examination of the tympanic membranes (erythema, edema, wounds) (rats; rat, single IT, Days 1, 7, 14, vs control) | mortalities, clinical abnormalities, body weight, food intake, clinical pathologies (rats; rat, single bilateral IT 30 μL per ear, 14-day study) |
| --- | --- | --- | --- | --- |
| N.N.[Cl][Pt][Cl] [CisPt, cisplatin, reference compound] | 28%±6.6% |  |  |  |
| gentamicin [reference compound] |  | statistically significant (p≤0.05) increased weight-normalized heart weights | increases in otoscopic scores | no LPT99- or gentamicin-related mortalities |
